The values that follow come from patent US20200390101A1, “MICROBICIDAL COMPOSITION” (DOW GLOBAL TECHNOLOGIES LLC, priority 2017, published 2020).

The experiment relates to anaerobic sulfate-reducing bacteria. As to the kind of experiment: Sulfide control efficacy against anaerobic sulfate-reducing bacteria (colorimetric sulfide measurement after 2 days at 35° C.). The experiment is classed as cell-based. Particulars: for Sulfide (ppm): sulfide level at the listed THPS/nitrate concentrations after 2 days at 35° C. How it is done: Inside an anaerobic chamber (Bactron anaerobic chamber), a deoxygenated sterile salt solution (3.12 g of NaCl, 0.13 g of NaHCO3, 0.17 g of Na2SO4, 47.70 mg of KC1, 72.00 mg of CaCl2, 54.49 mg of MgSO4, 43.92 mg of Na2CO3 in 1 L water and then enriched with 5% of ATCC 1249 Modified Baar's Medium) was inoculated with a sulfate-reducing bacteria which has a high similarity in 16S rRNA gene sequence with Desulfovibrio alaskensis and Desulfovibrio vietnamensis, at a final bacterial concentrations of 10^7 CFU/mL. […] After the mixtures were incubated at 35° C. for 2 days, sulfide level in all treatments including non THPS and or nitrate controls were measured using a colorimetric method described by D. Andrew et. al in “Standard Methods for the Examination of Water and Wastewater 4500-S2-”, with a scaled down sample size (250 μl) and reagents (scaled down accordingly) to allow the analysis to be done in 96-well micro-titer plates. Final results were read using a 96-well plate reader (TECAN Sunrise) at wavelength of 580 nm.
SI is calculated as follows:
Ca/CA+Cb/CB=Synergy Index (“SI”)

On to `O=[N+]([O-])[O-].[Na+]` [THPS:Nitrate 0:1, sodium nitrate], for which the “Sulfide (ppm)” value amounted to 74.26 ppm. In addition, the “Active ppm concentration required to control sulfide below 10 ppm, Nitrate” value (nitrate component (sodium nitrate), 10^7 CFU/mL, 35° C., 2 days, anaerobic) is on record as greater than 800 ppm.
For “tetrakis(hydroxymethyl) phosphonium sulfate [THPS:Nitrate 1:0]”, the “Sulfide (ppm)” value is 2.48 ppm. Moreover, the “Active ppm concentration required to control sulfide below 10 ppm, THPS” value (THPS component, 10^7 CFU/mL, 35° C., 2 days, anaerobic) came to 12.50 ppm.
